The results in this text go back to ChEMBL document CHEMBL5107949, “Design, synthesis, and antibacterial activity of N-(trifluoromethyl)phenyl substituted pyrazole derivatives” (RSC Med Chem, 2021).

The structures appear in SMILES notation. Converted amounts (≈) assume the structure as drawn. The source made the active and inactive calls. The rule behind the calls is not given here. Where only a bound is given, the exact number is not on record here.

The test system of data set [1] is Enterococcus faecium. Kind of data set: Antibacterial activity against Enterococcus faecium clinical isolate 1088925 assessed as inhibition of bacterial growth by CLSI protocol based broth microdilution method. Format: functional.
The subject of data set [2] is Enterococcus faecalis. Kind of data set: Antibacterial activity against Enterococcus faecalis clinical isolate 1091720 assessed as inhibition of bacterial growth by CLSI protocol based broth microdilution method. Format: functional.
In data set [3] the test system is Enterococcus faecalis. Kind of data set: Anti-biofilm activity against Enterococcus faecalis ATCC 29212 assessed as minimum bactericidal concentration incubated for 24 hrs by Calgary biofilm device assay. Conditions: ATCC 29212, 24 h.
Data set [4] concerns Enterococcus faecium. Kind of data set: Antibacterial activity against Enterococcus faecium clinical isolate 1089544 assessed as inhibition of bacterial growth by CLSI protocol based broth microdilution method. Format: functional.
Data set [5] deals with Staphylococcus aureus. Kind of data set: Antibacterial activity against antibiotic resistant Staphylococcus aureus BAA-2312 assessed as inhibition of bacterial growth by CLSI protocol based broth microdilution method. Format: functional.
In data set [6] the test system is Staphylococcus aureus. Kind of data set: Antibacterial activity against antibiotic susceptible Staphylococcus aureus ATCC 25923 assessed as inhibition of bacterial growth by CLSI protocol based broth microdilution method. Type of data set: functional.
For data set [7], the system named is Enterococcus faecalis. Kind of data set: Anti-biofilm activity against Enterococcus faecalis ATCC 29212 assessed as eradication of biofilm formation incubated for 24 hrs by Calgary biofilm device assay. Type of data set: functional.
The test system of data set [8] is Enterococcus faecalis. Kind of data set: Antibacterial activity against Enterococcus faecalis clinical isolate 1094112 assessed as inhibition of bacterial growth by CLSI protocol based broth microdilution method. Type of data set: functional.
In data set [9] the test system is Enterococcus faecalis. Kind of data set: Antibacterial activity against Enterococcus faecalis clinical isolate 1088051 assessed as inhibition of bacterial growth by CLSI protocol based broth microdilution method. Type of data set: functional.
Data set [10] concerns Enterococcus faecium. Kind of data set: Antibacterial activity against vancomycin resistant Enterococcus faecium ATCC 700221 assessed as inhibition of bacterial growth by CLSI protocol based broth microdilution method. Format: functional.
Data set [11] deals with Staphylococcus aureus. Kind of data set: Anti-biofilm activity against Staphylococcus aureus ATCC 25923 assessed as eradication of biofilm formation incubated for 24 hrs by Calgary biofilm device assay. Type of data set: functional. Conditions: Staphylococcus aureus, ATCC 25923.
Data set [12] has as its system Staphylococcus aureus. Kind of data set: Antibacterial activity against Staphylococcus aureus ATCC 25923 assessed as minimum bactericidal concentration incubated for 24 hrs by Calgary biofilm device assay. Conditions: ATCC 25923, 24 h.
The test system of data set [13] is Enterococcus faecalis. Kind of data set: Antibacterial activity against antibiotic susceptible Enterococcus faecalis ATCC 29212 assessed as inhibition of bacterial growth by CLSI protocol based broth microdilution method. Format: functional.
Data set [14] concerns Enterococcus faecium. Kind of data set: Antibacterial activity against Enterococcus faecium clinical isolate 1088168 assessed as inhibition of bacterial growth by CLSI protocol based broth microdilution method. Format: functional.
For data set [15], the system named is Staphylococcus aureus. Kind of data set: Bactericidal activity against Staphylococcus aureus ATCC 700699 assessed as bacteria elimination at 4 times MIC and measured after 10 hrs by time-kill assay. Type of data set: functional, organism-based.
The next data set concerns Bacillus subtilis. Kind of data set: Antibacterial activity against antibiotic resistant Bacillus subtilis ATCC 6623 assessed as inhibition of bacterial growth by CLSI protocol based broth microdilution method. Type of data set: functional.
The subject of data set [16] is Staphylococcus aureus. Kind of data set: Antibacterial activity against antibiotic resistant Staphylococcus aureus ATCC 700699 assessed as inhibition of bacterial growth by CLSI protocol based broth microdilution method. Format: functional.
In data set [17] the test system is Enterococcus faecium. Kind of data set: Antibacterial activity against Enterococcus faecium clinical isolate 1088228 assessed as inhibition of bacterial growth by CLSI protocol based broth microdilution method. Type of data set: functional.
Data set [18] deals with Enterococcus faecium. Kind of data set: Antibacterial activity against Enterococcus faecium clinical isolate 1091282 assessed as inhibition of bacterial growth by CLSI protocol based broth microdilution method. Format: functional.
Data set [19] relates to Enterococcus faecalis. Kind of data set: Antibacterial activity against Enterococcus faecalis clinical isolate 1091563 assessed as inhibition of bacterial growth by CLSI protocol based broth microdilution method. Format: functional.
Data set [20] relates to Enterococcus faecalis. Kind of data set: Antibacterial activity against Enterococcus faecalis clinical isolate 1100440 assessed as inhibition of bacterial growth by CLSI protocol based broth microdilution method. Type of data set: functional.
Data set [21] relates to Staphylococcus epidermidis. Kind of data set: Antibacterial activity against antibiotic resistant Staphylococcus epidermidis ATCC 700296 assessed as inhibition of bacterial growth by CLSI protocol based broth microdilution method. Format: functional.
A further data set has as its system HEK293. Kind of data set: Cytotoxicity against human HEK293 cells reduction in cell viability at 74 ug/ml incubated for 24 hrs by resazurin cell viability assay. Conditions: hek293, 24 h, at 74 µg/mL. Type of data set: toxicity, cell-based.
Data set [22] deals with Staphylococcus aureus. Kind of data set: Antibacterial activity against Staphylococcus aureus clinical isolate 1089106 assessed as inhibition of bacterial growth by CLSI protocol based broth microdilution method. Format: functional.
In data set [23] the test system is Staphylococcus aureus. Kind of data set: Antibacterial activity against Staphylococcus aureus clinical isolate 1088626 assessed as inhibition of bacterial growth by CLSI protocol based broth microdilution method. Type of data set: functional.
Data set [24] has as its system Staphylococcus aureus. Kind of data set: Antibacterial activity against Staphylococcus aureus clinical isolate 1088888 assessed as inhibition of bacterial growth by CLSI protocol based broth microdilution method. Type of data set: functional.
The subject of data set [25] is Staphylococcus aureus. Kind of data set: Antibacterial activity against Staphylococcus aureus clinical isolate 1088105 assessed as inhibition of bacterial growth by CLSI protocol based broth microdilution method. Format: functional.
The subject of data set [26] is Staphylococcus aureus. Kind of data set: Antibacterial activity against Staphylococcus aureus clinical isolate 1088610 assessed as inhibition of bacterial growth by CLSI protocol based broth microdilution method. Format: functional.
Data set [27] concerns Staphylococcus aureus. Kind of data set: Antibacterial activity against Staphylococcus aureus clinical isolate 1088064 assessed as inhibition of bacterial growth by CLSI protocol based broth microdilution method. Format: functional.
Data set [28] concerns Staphylococcus aureus. Kind of data set: Antibacterial activity against Staphylococcus aureus clinical isolate 1088060 assessed as inhibition of bacterial growth by CLSI protocol based broth microdilution method. Format: functional.
Data set [29] relates to Staphylococcus aureus. Kind of data set: Inhibition of protein synthesis in Staphylococcus aureus ATCC 29213 at 8 times MIC preincubated for 30 mins followed by [3H]-leucine and measured after 40 mins by [3H]-leucine incorporation based beta scintillation counter analysis. Type of data set: functional. Particulars: time 70.0 min.

For `CN[C@H](CC(C)C)C(=O)N[C@H]1C(=O)N[C@@H](CC(N)=O)C(=O)N[C@H]2C(=O)N[C@H]3C(=O)N[C@H](C(=O)N[C@H](C(=O)O)c4cc(O)cc(O)c4-c4cc3ccc4O)[C@H](O)c3ccc(c(Cl)c3)Oc3cc2cc(c3O[C@@H]2O[C@H](CO)[C@@H](O)[C@H](O)[C@H]2O[C@H]2C[C@](C)(N)[C@H](O)[C@H](C)O2)Oc2ccc(cc2Cl)[C@H]1O` [VANCOMYCIN], the MIC is more than 32 µg/mL in the data set with Enterococcus faecium [1]; more than 32 µg/mL with Enterococcus faecalis [2]; more than 32 µg/mL in the data set with Enterococcus faecium [4]; 0.78 µg/mL (≈ 0.538 µM) in the data set with Staphylococcus aureus [5]; 0.78 µg/mL (≈ 0.538 µM) in the data set with Staphylococcus aureus [6]; more than 32 µg/mL in the data set with Enterococcus faecalis [8]. Also, the MIC was more than 32 µg/mL with Enterococcus faecalis [9]; more than 50 µg/mL in the data set with Enterococcus faecium [10]; 3.12 µg/mL (≈ 2.15 µM) with Enterococcus faecalis [13]; more than 32 µg/mL with Enterococcus faecium [14]; 0.39 µg/mL (≈ 0.269 µM) with Bacillus subtilis; 3.12 µg/mL (≈ 2.15 µM) in the data set with Staphylococcus aureus [16]. In addition, the MIC was more than 32 µg/mL with Enterococcus faecium [17]; more than 32 µg/mL with Enterococcus faecium [18]; more than 32 µg/mL in the data set on Enterococcus faecalis [19]; more than 32 µg/mL in the data set with Enterococcus faecalis [20]; 3.12 µg/mL (≈ 2.15 µM) in data set [21]. Also, the results for the MBC in the data set on Enterococcus faecalis [3] and with Staphylococcus aureus [12] were 25 µg/mL (≈ 17.3 µM) and 6.25 µg/mL (≈ 4.31 µM), respectively. Also, the MBEC in the data set on Enterococcus faecalis [7] and in the data set on Staphylococcus aureus [11] was more than 50 µg/mL in each case. The result in the data set on Staphylococcus aureus [15] was Active.
Turning to `CC/C(=C(\c1ccccc1)c1ccc(OCCN(C)C)cc1)c1ccccc1` [TAMOXIFEN], the Activity in the data set with HEK293 was 100%.
In the case of `Cc1onc(-c2ccccc2)c1C(=O)N[C@@H]1C(=O)N2[C@@H]1SC(C)(C)[C@@H]2C(=O)O` [OXACILLIN], the MIC in the data set with Enterococcus faecium [1] was more than 64 µg/mL; in the data set with Staphylococcus aureus [22], 64 µg/mL (≈ 159 µM); with Enterococcus faecalis [2], 64 µg/mL (≈ 159 µM); in the data set on Enterococcus faecium [4], more than 64 µg/mL; in the data set with Staphylococcus aureus [23] it was 0.25 µg/mL (≈ 0.623 µM); with Staphylococcus aureus [24] it was more than 64 µg/mL. In addition, the MIC is more than 64 µg/mL in the data set with Enterococcus faecalis [8]; 64 µg/mL (≈ 159 µM) in the data set with Enterococcus faecalis [9]; more than 64 µg/mL in the data set on Enterococcus faecium [14]; more than 64 µg/mL in the data set with Enterococcus faecium [17]; more than 64 µg/mL with Enterococcus faecium [18]; 64 µg/mL (≈ 159 µM) in the data set on Enterococcus faecalis [19]. The MIC is more than 64 µg/mL with Enterococcus faecalis [20]; 0.25 µg/mL (≈ 0.623 µM) with Staphylococcus aureus [25]; 64 µg/mL (≈ 159 µM) in the data set with Staphylococcus aureus [26]; 64 µg/mL (≈ 159 µM) in the data set on Staphylococcus aureus [27]; 0.5 µg/mL (≈ 1.25 µM) in the data set on Staphylococcus aureus [28].
Regarding `CC(=O)NC[C@H]1CN(c2ccc(N3CCOCC3)c(F)c2)C(=O)O1`, in the data set on Staphylococcus aureus [29], the inhibition stood at 70.7%.
In the case of `C[C@@H](O)[C@H]1C(=O)N2C(C(=O)O)=C(S[C@@H]3CN[C@H](C(=O)N(C)C)C3)[C@H](C)[C@H]12` [MEROPENEM], the MIC in the data set with Enterococcus faecium [1] was more than 128 µg/mL; in the data set on Staphylococcus aureus [22], 2 µg/mL (≈ 5.22 µM); with Enterococcus faecalis [2], 8 µg/mL (≈ 20.9 µM); in the data set with Enterococcus faecium [4], more than 128 µg/mL; in the data set with Staphylococcus aureus [23], 0.06 µg/mL (≈ 0.156 µM); with Staphylococcus aureus [24] it was 8 µg/mL (≈ 20.9 µM). Also, the MIC was 8 µg/mL (≈ 20.9 µM) in the data set with Enterococcus faecalis [8]; 2 µg/mL (≈ 5.22 µM) in the data set on Enterococcus faecalis [9]; more than 128 µg/mL in the data set on Enterococcus faecium [14]; more than 128 µg/mL with Enterococcus faecium [17]; more than 128 µg/mL in the data set with Enterococcus faecium [18]; 2 µg/mL (≈ 5.22 µM) in the data set with Enterococcus faecalis [19]. In addition, the MIC was determined as 4 µg/mL (≈ 10.4 µM) in the data set on Enterococcus faecalis [20]; 0.12 µg/mL (≈ 0.313 µM) in the data set with Staphylococcus aureus [25]; 4 µg/mL (≈ 10.4 µM) in the data set with Staphylococcus aureus [26]; 4 µg/mL (≈ 10.4 µM) in the data set on Staphylococcus aureus [27]; 0.06 µg/mL (≈ 0.156 µM) with Staphylococcus aureus [28].
